Target: T1, human prostatic 5α-reductase (Homo sapiens, UniProt P31213)
T1 construct: from homogenates of human benign prostatic hypertrophyc tissue as the enzyme source; from tissue; host or cells: human benign prostatic hypertrophic tissue, particulate fraction (nuclei, microsomes and mitochondria)
T1 sequence (P31213 1-254): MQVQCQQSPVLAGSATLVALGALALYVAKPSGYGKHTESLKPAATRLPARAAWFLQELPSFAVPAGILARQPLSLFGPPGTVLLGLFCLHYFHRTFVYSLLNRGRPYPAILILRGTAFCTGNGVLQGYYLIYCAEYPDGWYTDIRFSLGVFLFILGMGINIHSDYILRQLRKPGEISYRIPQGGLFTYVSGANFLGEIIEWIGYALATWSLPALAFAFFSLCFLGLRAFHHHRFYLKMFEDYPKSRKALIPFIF
Test: Inhibition of 5α-reductase in vitro, particulate fraction of human benign prostatic hypertrophic tissue homogenate
Assay type: biochemical
Settings: 1 μM [4-14C]testosterone, 5 mM NADPH, pH 5.5, 30 min at 37° C., read-out: concentration producing 50% inhibition on human prostatic 5α-reductase (IC50)
Procedure: For example, the inhibitory effect of the compounds of the invention on 5α-reductase was determined in vitro, according to the test procedure reported herebelow.
Inhibition of 5α-reductase was evaluated using the particulate fraction (containing nuclei, microsomes and mitochondria) from homogenates of human benign prostatic hypertrophyc tissue as the enzyme source.
The particulate fraction was prepared centrifuging prostate homogenate at 140,000 × g.
The resulting pellet, washed several times, was resuspended in buffer and stored at -80° C. in aliquots containing 10 mg protein/ml.
The assay for 5α-reductase was done in a final volume of 0.5 ml, containing 1 mM dithiothreitol, 40 mM TRIS-HCl buffer pH 5.5, 5 mM NADPH, 1 μM [4-^14 C]testosterone, 0.3 mg protein of the prostate particulate fraction and various concentrations of the inhibitors. […] Radioactivity on the plate was scanned and analyzed from quantitative plots printed by a TLC-analizer (Berthold). The fractional 5α-reduction of testosterone was calculated by relating the ^14 C-radioactivity in the 5α-reduced metabolites 5α-dihydrotestosterone, 3α- and 3β-androstanediols) regions to the total radioactivity in the testosterone and 5α-reduced metabolites regions. […]

Structure (SMILES): CC(C)NC(=O)N(C(=O)[C@H]1CC[C@H]2[C@@H]3CC=C4C=C(C(=O)O)CC[C@]4(C)[C@H]3CC[C@]12C)C(C)C [17β-[N-isopropyl-N-(N-isopropylcarbamoyl)carbamoyl]androsta-3,5-diene-3-carboxylic acid]
- IC50: 3 nM

Source: US5212166A, “Unsaturated 17β-subsituted 3-carboxy steroids” (Farmitalia Carlo Erba S.r.l., priority 1991, dated 1993)
